{"source": "EPA's ToxValDB 9.5 (doi:10.2903/j.efsa.2013.3166)", "key": {"Apis mellifera": {"test_system": "Apis mellifera", "conditions": "acute, duration: 48 hours, mortality"}, "Canidae": {"test_system": "Canidae", "conditions": "chronic; duration: 1 years; oral; Dog Other; food consumption"}, "Colinus virginianus": {"test_system": "Colinus virginianus", "conditions": "for LD50: acute, oral, mortality"}, "Lepomis macrochirus": {"test_system": "Lepomis macrochirus", "conditions": "acute; duration: 96 hours; mortality"}, "Perca sp.": {"test_system": "Perca sp.", "conditions": "acute; duration: 96 hours; mortality"}, "Pimephales promelas": {"test_system": "Pimephales promelas", "conditions": "acute; mortality"}, "Typhlodromus pyri": {"test_system": "Typhlodromus pyri", "test": "LR50; higher = less toxic", "conditions": "not reported; mortality"}, "[1]": {"conditions": "acute, duration: 14 days, mortality"}}, "data": [{"compound": "CC(C)(C)c1ccc(CCOc2ncnc3ccccc23)cc1", "note": "[Fenazaquin]", "values": [{"measurement": "LD50", "setting": "Apis mellifera; dermal", "value": 1.21, "unit": "µg/piece"}, {"measurement": "LD50", "setting": "Apis mellifera; oral, unspecified", "value": 4.29, "unit": "µg/piece"}, {"measurement": "NOAEL", "setting": "Canidae", "value": 5, "unit": "mg/kg-day"}, {"measurement": "LD50", "setting": "Colinus virginianus; diet", "value": "> 1170", "unit": "mg/kg-day"}, {"measurement": "LD50", "setting": "Colinus virginianus", "value": 1750, "unit": "mg/kg-day"}, {"measurement": "NOEC", "setting": "Colinus virginianus; reproduction developmental", "value": 80.3, "unit": "mg/kg-day"}, {"measurement": "LC50", "setting": "Folsomia candida; [1]", "value": "> 1000", "unit": "mg/kg"}, {"measurement": "NOEC", "setting": "Folsomia candida; chronic/long-term, duration: 28 days", "value": 23, "unit": "mg/kg"}, {"measurement": "LC50", "setting": "Lepomis macrochirus", "value": 34.1, "unit": "ng/mL"}, {"measurement": "LC50", "setting": "Perca sp.", "value": 3.2, "unit": "ng/mL"}, {"measurement": "LC50", "setting": "Pimephales promelas", "value": 4.2, "unit": "ng/mL"}, {"measurement": "LD50", "setting": "Rattus norvegicus; acute, oral, M, mortality", "value": 134, "unit": "mg/kg-day"}, {"measurement": "NOAEL", "setting": "Rattus norvegicus; chronic, duration: 2 years, oral, histopathology: nonneoplastic", "value": 0.46, "unit": "mg/kg-day"}, {"measurement": "NOEL", "setting": "Rattus norvegicus; reproduction developmental", "value": 25, "unit": "mg/kg-day"}, {"measurement": "NOAEL", "setting": "Rattus norvegicus; reproduction developmental, food consumption", "value": 10, "unit": "mg/kg-day"}, {"measurement": "LC50", "setting": "Tagia sp.; [1]", "value": 26.5, "unit": "mg/kg"}, {"measurement": "NOEC", "setting": "Tagia sp.; chronic/long-term, duration: 8 weeks", "value": 1.25, "unit": "mg/kg"}, {"measurement": "LR50", "setting": "Typhlodromus pyri", "value": "< 2", "unit": "g/ha"}]}]}
